The values that follow come from patent US12390447B2, “Sirtuin 6 protein deacylase (SIRT6) activators” (Wisconsin Alumni Research Foundation, priority 2019, dated 2025).

Holding throughout (type): biochemical
One assay has as its target SIRT6 R65A (Homo sapiens, UniProt Q8N6T7, R65A). As to the kind of experiment: Steady-state deacetylation rate of SIRT6 R65A with or without CL5D. Particulars: CL5D 50 μM. How it is done: (§1) All sirtuin deacylation assays were carried out at 37° C. in 20 mM potassium phosphate pH 7.5 with 0.5 mM NAD^+, 10% DMSO, and 20 μM H3K9ac or H3K9myr peptides, unless otherwise noted in legend, and quenched by the addition of 2% TFA final. Steady-state reactions were constrained to less than 20% substrate turnover to prevent product inhibition. A variety of times were required to monitor SIRT6 deacetylation (2-60 minutes) under this restraint given the ability to strongly activate catalysis. In these cases, specific activities were determined and either reported as is or as fold-activation of specific activity. Deacylation reactions were analyzed by reversed phase high-performance liquid chromatography on a Kinetex C18 column (100 Å, 100×4.6 mm, 2.6 μm, Phenomenex) by monitoring the formation of the deacylated product at 214 nm. Deacetylation reactions were analyzed using a gradient of 33-100% B (30% acetonitrile with 0.05% TFA) in 8 min at 1.6 mL min^−1. Demyristoylation reactions were analyzed using a gradient of 3 to 100% B (acetonitrile with 0.05% TFA) in 10 min at 1.6 mL min^−1. The product and substrate peaks were quantified and ratio of these allowed for quantification of product formation. Three independent experiments were performed for each condition with averages being plotted and error bars representing the standard deviation of these replicates. […]

The target in another assay is SIRT6 K160A (Homo sapiens, UniProt Q8N6T7, K160A). As to the kind of experiment: Steady-state deacetylation rate of SIRT6 K160A with or without CL5D. To be noted: SIRT6 K160A 1 μM, H3K9ac 40 μM, CL5D 50 μM, 25 minutes. How it is done: as §1
The target in another assay is T1, SIRT1 (Homo sapiens, UniProt Q96EB6).
T1 sequence (Q96EB6 1-747): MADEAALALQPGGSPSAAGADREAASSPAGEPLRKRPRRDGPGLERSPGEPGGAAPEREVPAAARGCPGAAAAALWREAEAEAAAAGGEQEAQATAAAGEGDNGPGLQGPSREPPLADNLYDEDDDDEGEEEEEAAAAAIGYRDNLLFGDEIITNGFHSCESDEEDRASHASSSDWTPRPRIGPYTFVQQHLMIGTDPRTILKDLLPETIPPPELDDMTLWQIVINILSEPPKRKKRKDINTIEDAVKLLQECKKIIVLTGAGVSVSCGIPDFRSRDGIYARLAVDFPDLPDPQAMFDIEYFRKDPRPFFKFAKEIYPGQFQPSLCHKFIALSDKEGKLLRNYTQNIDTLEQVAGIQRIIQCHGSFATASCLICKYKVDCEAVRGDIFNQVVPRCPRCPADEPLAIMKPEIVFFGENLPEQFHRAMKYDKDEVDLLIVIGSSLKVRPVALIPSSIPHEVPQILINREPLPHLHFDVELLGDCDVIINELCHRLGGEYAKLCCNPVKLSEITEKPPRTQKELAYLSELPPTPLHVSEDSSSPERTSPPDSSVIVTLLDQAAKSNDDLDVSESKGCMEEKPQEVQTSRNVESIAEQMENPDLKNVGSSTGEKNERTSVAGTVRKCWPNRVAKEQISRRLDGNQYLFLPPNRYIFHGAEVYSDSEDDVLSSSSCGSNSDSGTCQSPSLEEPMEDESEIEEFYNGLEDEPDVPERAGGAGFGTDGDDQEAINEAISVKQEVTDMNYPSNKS
The assay can be described thus: SIRT1 deacetylase activity against H3K9ac peptide. To be noted: 400 μM compound. How it is done: FIGS. 1A-F illustrate the identification of novel SIRT6 activators. (1A) Compound libraries BML-2803, BML-2800, and an additional set of 178 molecules were screened at 100 μM for their ability to stimulate SIRT6 (1 μM) deacetylation of H3K9ac peptide (20 μM) in the presence of 0.5 mM NAD^+. SIRT6 activity was measured by HPLC quantification of H3K9ac and deacetylated product (inset) and fold activations relative to DMSO control were determined and compiled. (1B) Fold-activation of SIRT6 (1 μM) determined in the presence of either 0-400 μM CL4, 0-150 μM TTNPB, 0-100 μM Lysophosphatidic acid (LPA), or 0-200 μM linoleoylglycine (LGly). Maximum fold-activation and EC50 determined by sigmoidal curve fit. […] Constants Km, H3K9ac and kcat were determined by fitting data to Michaelis-Menten equation. (1D) Fold-activations of SIRT1 (0.1 μM), SIRT2 (0.2 μM), SIRT3 (1 μM), SIRT5 (2 μM), and SIRT6 (1 μM) determined in the presence of CL4 (100 μM), TTNPB (50 μM), and LPA (50 μM) relative to DMSO control against 20 μM H3K9ac peptide and 0.5 mM NAD^+. […]
All sirtuin deacylation assays were carried out at 37° C. in 20 mM potassium phosphate pH 7.5 with 0.5 mM NAD^+, 10% DMSO, and 20 μM H3K9ac or H3K9myr peptides, unless otherwise noted in legend, and quenched by the addition of 2% TFA final. […] The product and substrate peaks were quantified and ratio of these allowed for quantification of product formation. […]

SIRT6 R65A, sequence (Q8N6T7 whole entry R65A): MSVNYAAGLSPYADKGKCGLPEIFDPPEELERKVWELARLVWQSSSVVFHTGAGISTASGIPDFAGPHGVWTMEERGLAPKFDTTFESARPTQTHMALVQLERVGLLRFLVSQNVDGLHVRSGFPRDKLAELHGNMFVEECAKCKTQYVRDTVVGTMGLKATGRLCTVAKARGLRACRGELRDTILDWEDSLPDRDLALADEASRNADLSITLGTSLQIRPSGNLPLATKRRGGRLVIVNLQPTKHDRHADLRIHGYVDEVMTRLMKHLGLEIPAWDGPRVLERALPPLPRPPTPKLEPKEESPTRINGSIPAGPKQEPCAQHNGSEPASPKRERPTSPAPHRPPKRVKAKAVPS
SIRT6 K160A, sequence (Q8N6T7 whole entry K160A): as the sequence (Q8N6T7 whole entry R65A) above, with A65R, K160A counted along it

Regarding `O=C(O)c1ccc2c(c1)C(=O)N(c1ccc(N(C(=O)c3c(Cl)cc(Cl)cc3Cl)C(=O)c3c(Cl)cc(Cl)cc3Cl)c(Cl)c1)C2=O` [CL-5D, 2-(3-chloro-4-(2,4,6-trichloro-N-(2,4,6-trichlorobenzoyl)benzamido)phenyl)-1,3-dioxoisoindoline-5-carboxylic acid], at SIRT6 R65A, the “activation of SIRT6 R65A (in words)” value is “cannot be activated”. The RateCL5D turned out to be 0.014 ± 0.004 µM/min at SIRT6 R65A (SIRT6 R65A 1 μM, H3K9ac 40 μM, 25 minutes) and 0.126 ± 0.006 µM/min at SIRT6 K160A. Besides, the “SIRT1 deacetylase activity at high activator concentration” value on SIRT1 was “inhibited”.
